Experiments:
[1] = tested on: Lmna^G609G/G609G mice; test: Survival (Kaplan–Meier) of Lmna^G609G/G609G mice; type: in vivo, mouse
Excerpt: All animal experiments were approved by the Ethics Committee of School of Life Sciences, Northeast Normal University, China (AP20191011) and carried out in accordance with the relevant guidelines: National Standards of the People’s Republic of China (GB/T 35892–2018), Laboratory Animal—Guideline for Ethical Review of Animal Welfare. We generated a mouse model (ICR background), carrying the Lmna^G609G using the BE4-Gam system. The protocols for the BE4-Gam system and microinjection of pronuclear-stage embryos have been described in detail previously[37],[38],[59]. Briefly, a mixture of BE4-Gam mRNA (200 ng μl^–1) and sgRNA-Lmna (30 ng μl^–1) was coinjected into the cytoplasm of pronuclear-stage embryos of the mouse. The injected embryos were transferred to embryo culture medium for 30–60 min, followed by transferring the injected embryos into the recipient mother. The embryos continued to develop and the founder mice (referred to as F0) were born: wild-type mice (Lmna^+/+), heterozygous mice (Lmna^G609G/+) and homozygous mice (Lmna^G609G/G609G). F1 heterozygous mice (Lmna^G609G/+) were obtained by crossing F0 heterozygous mice (Lmna^G609G/+). F2 homozygous mice (Lmna^G609G/G609G) were obtained by crossing F1 heterozygous mice (Lmna^G609G/+). We selected F2 mice (Lmna^+/+ and Lmna^G609G/G609G) for subsequent experiments. The mice were housed with a 12-h light/dark cycle (6:00 to 18:00) in a 20 °C and 40% humidity-controlled room. Water and rodent feed were fed ad libitum.
(§1) For UPCP injection, 14-day-old Lmna^G609G/G609G mice were injected intraperitoneally with either PBS or UPCP (20 mg kg^–1, every other day) and wild-type mice were injected with PBS. All phenotypic analyses were performed after 12 weeks of treatment with UPCP. Bodyweight and lifespan were monitored after UPCP treatment. The survival rate was analyzed by the Kaplan–Meier method. We only included mice that were of sufficient bodyweight at the start of the experiment, typically at least 80% of the average littermate weight of the same sex and genotype. All animals meeting criteria for inclusion were then divided randomly into three groups according to genotype (Lmna^+/+, Lmna^G609G/G609G-Mock and Lmna^G609G/G609G-UPCP).

[2] = tested on: lamin B1, p21 and IL-6 in skin of Lmna^G609G/G609G mice; test: IHC of lamin B1, p21 and IL-6 in skin of Lmna^G609G/G609G mice; type: in vivo, mouse; conditions: for p21 positive cells / IL-6 positive cells / LaminB1 positive cells: LmnaG609G/G609G+UPCP; for p21 positive cells: P=0.0003 vs LmnaG609G/G609G-Mock; for IL-6 positive cells: P=0.0012 vs LmnaG609G/G609G-Mock; for LaminB1 positive cells: P=0.0142 vs LmnaG609G/G609G-Mock
Experimental: as §1
For histological analyses, mice of the indicated genotypes were perfused with PBS, then with 4% paraformaldehyde (PFA). Whole organs were incubated in 4% PFA at 4 °C for 16 h. All samples were paraffin embedded and sectioning by Servicebio. Subsequently, the tissues were deparaffinized and rehydrated before hematoxylin-eosin (HE) or Masson staining or immunohistochemistry (IHC). HE staining was performed using an HE Kit (Absin, catalog no. abs9217), and Masson staining was performed using Masson’s Trichrome Stain Kit (Absin, catalog no. abs9347) according to the manufacturer’s instructions. The thickness of the layers or the areas of fibrosis in the tissues were calculated using ImageJ software by a blinded investigator. For IHC, the sections were completed by the Servicebio. The images were acquired by a microscope (Leica DMi8) and analyzed with Leica Application Suite X v.3.6.0.24 (Leica). For BubR1, cytoplasmic staining in cells was scored on the intensity of staining and the proportion of positive cells by a blinded investigator. The intensity of the staining was graded as 0 (negative, no color), 1 (low positive, light yellow), 2 (positive, brown yellow) or 3 (high positive, brown), and the number of positive cells was graded as 0 (<5%), 1 (5–25%), 2 (25–50%), 3 (51–75%) or 4 (>75%). The final score was defined as staining number score multiplied by staining color score. For lamin B1, p21 or IL-6, the proportion of positive cells was used to quantify the expression of protein in tissues by a blinded investigator.

[3] = skin, 20 mg kg^–1 i.p. every other day

## H-YGRKKRRQRRRYNLRSRTVLCGTCGQPADKASASGSGAQSPQNCSIM-OH (cysteines drawn unpaired) [UPCP, unique progerin C-terminal peptide]
[1]; 20 mg kg^–1 i.p. every other day from 14 days of age, PBS 100.9 days
  mean survival: 118.6 days
[1]; 20 mg kg^–1 i.p. every other day from 14 days of age, n = 15 UPCP vs n = 17 PBS (100 days)
  median survival: 117 days
[1]; 20 mg kg^–1 i.p. every other day, female, individual 1 of 9
  individual survival: 103 days
[1]; 20 mg kg^–1 i.p. every other day, female, individual 2 of 9
  individual survival: 110 days
[1]; 20 mg kg^–1 i.p. every other day, female, individual 3 of 9
  individual survival: 110 days
[1]; 20 mg kg^–1 i.p. every other day, female, individual 4 of 9
  individual survival: 111 days
[1]; 20 mg kg^–1 i.p. every other day, female, individual 5 of 9
  individual survival: 117 days
[1]; 20 mg kg^–1 i.p. every other day, female, individual 6 of 9
  individual survival: 126 days
[1]; 20 mg kg^–1 i.p. every other day, female, individual 7 of 9
  individual survival: 128 days
[1]; 20 mg kg^–1 i.p. every other day, female, individual 8 of 9
  individual survival: 130 days
[1]; 20 mg kg^–1 i.p. every other day, female, individual 9 of 9
  individual survival: 136 days
[1]; 20 mg kg^–1 i.p. every other day, male, individual 1 of 6
  individual survival: 104 days
[1]; 20 mg kg^–1 i.p. every other day, male, individual 2 of 6
  individual survival: 106 days
[1]; 20 mg kg^–1 i.p. every other day, male, individual 3 of 6
  individual survival: 116 days
[1]; 20 mg kg^–1 i.p. every other day, male, individual 4 of 6
  individual survival: 118 days
[1]; 20 mg kg^–1 i.p. every other day, male, individual 5 of 6
  individual survival: 129 days
[1]; 20 mg kg^–1 i.p. every other day, male, individual 6 of 6
  individual survival: 135 days
[1]; 20 mg kg^–1 i.p. every other day, vs PBS-treated mice
  increase in lifespan (median survival): 17%
[2]; replicate 1
  p21 positive cells: 0.2237
  IL-6 positive cells: 0.4348
  LaminB1 positive cells: 0.5254
[2]; replicate 2
  p21 positive cells: 0.3636
  IL-6 positive cells: 0.5192
  LaminB1 positive cells: 0.7647
[2]; replicate 3
  p21 positive cells: 0.2043
  IL-6 positive cells: 0.5517
  LaminB1 positive cells: 0.3729
[2]; replicate 4
  p21 positive cells: 0.2308
  IL-6 positive cells: 0.5702
  LaminB1 positive cells: 0.6429
[2]; replicate 5
  p21 positive cells: 0.3175
  IL-6 positive cells: 0.5897
  LaminB1 positive cells: 0.6739
[2]; replicate 6
  p21 positive cells: 0.1875
  IL-6 positive cells: 0.375
  LaminB1 positive cells: 0.598
[2]; [3]
  number of lamin B1 positive cells: increase the number of lamin B1 positive cells
  p21 and IL-6 expression: reduce p21 and IL-6 expression in the skin

From article PMC10154249, “Unique progerin C-terminal peptide ameliorates Hutchinson–Gilford progeria syndrome phenotype by rescuing BUBR1” (Nature Aging, 2023)
